In patent US6262023A, “WD-40 derived peptides and uses thereof” (The Board of Trustees of the Leland Stanford Junior …, priority 1995, dated 2001):

Assays:
[1] = target: βPKC (Rattus norvegicus, UniProt P68403); assay: PKC overlay of immobilized peptides (slot-blot); type: binding; design: All the solutions contained 5 nM rat brain PKC in peptide overlay buffer; from tissue; host or cells: rat brain; settings: DG and calcium
Description: The binding of βPKC to peptide I (SEQ ID NO:1), peptide rVI (SEQ ID NO:7) and control peptide (SEQ ID NO:9) was assessed using a PKC overlay assay similar to that described in Example 3. Increasing amounts of peptides (0.5 μmole, 1.0 μmole, 5.0 μmole and 10.0 μmole) suspended in 20 mM NaCl were applied individually onto nitrocellulose using a slot-blot apparatus (Schleicher and Schuell, Keene, N.H.). The nitrocellulose membrane was washed three times, minutes per wash, in peptide overlay buffer and incubated for two hours in peptide overlay block buffer. The membrane was cut into sections and the sections were transferred to different PKC-containing solutions and incubated for 30 minutes at room temperature. All the solutions contained 5 nM rat brain PKC in peptide overlay buffer. Some solutions additionally contained PS, DG, and calcium. The membranes were then washed three times, 15 minutes per wash, in peptide overlay buffer and incubated in peptide overlay block buffer containing anti-βPKC monoclonal antibodies (1:1000 dilution; Seikagaku Kogyo, Tokyo, Japan). […]
Binding of PKC was determined using chemiluminescence as described in Example 3, part C. Quantitation of PKC binding was carried out using a "MICRO SCAN" 1000 gel analyzer (Galai Inc., Yokneam, Israel).

[2] = tested on: PKC; assay: PKC autophosphorylation; type: biochemical, rat; settings: 10 μM peptide; no PS, DG, calcium
Description: Rat brain PKC (~10 nM) was incubated with mild agitation in a final volume of 250 μl of overlay buffer, as in Example 1 either with anti-βPKC pseudosubstrate antibodies (1:10 dilution, Life Technologies, Gaithersburg, Md.) or with the indicated peptide (10 μM). Where indicated, PS (50 μg/ml), DG (0.8 μg/ml) and CaCl2 (1 mM) were also added. The amount of autophosphorylation was determined after 2 hours for the reaction with the anti-pseudosubstrate antibodies, or after 15 minutes for the other samples. 50 μl of a buffer comprised of 20 mM Tris-HCl (pH 7.5), 20 mM MgCl2, 20 μM ATP and 5 μci/ml [γ-^32 P]ATP. The mixture was incubated for 15 minutes at room temperature and the reaction was stopped by adding 60 μl sample buffer (see Example 9). The samples were then boiled for 10 minutes, loaded onto a 10% SDS-PAGE mini gel and electrophoresed. The gel was fixed with 50% methanol and 10% acetic acid for 1 hour, and the autophosphorylation of PKC was determined by autoradiography.

[3] = tested on: βPKC; assay: βPKC translocation (soluble vs particulate fraction) in Xenopus oocytes; type: cell-based; settings: 50 μM peptide microinjected
Description: Insulin causes the translocation of βPKC, but not other PKC isozymes, from a cytosolic form to a membrane-associated form, as evidenced by the relative levels of PKC in the soluble vs. the particulate fraction of oocyte homogenate. To assess the effects of RACK1 WD-40-derived peptides on insulin-induced PKC translocation, 50 nl of a 20 mM NaCl solution containing the indicated peptides were microinjected into Xenopus oocytes. The oocytes were then homogenized, and the relative amount of PKC in the soluble and particulate fractions was assayed. The protocol followed was a modification of a method described by Smith, et al. (1992).
Batches of 50 oocytes were microinjected with either peptide rVI (SEQ ID NO:7; 50 μM; lanes 3, 4), peptide I (SEQ ID NO:1; 50 μM, lanes 7, 8) or injection solution (NaCl 20 mM, lanes 1,2 and 5,6). Homogenates from each batch were prepared 60 minutes after microinjection (lanes 1-4) or 60 minutes after addition of insulin (lanes 5-8). The homogenates were centrifuged at 10,000 g for 3 minutes, the upper layer (containing fat and yolk) was removed, and the remainder was frozen at -70° C. […] The amount of PKC in each fraction was determined by Western blot using anti-βPKC antibodies (1:1000 dilution; Seikagaku Kogyo, Tokyo, Japan). Bound primary antibodies were detected by chemiluminescence as described in Example 3, part C.

Chain of βPKC (Rattus norvegicus, UniProt P68403) (P68403 whole entry): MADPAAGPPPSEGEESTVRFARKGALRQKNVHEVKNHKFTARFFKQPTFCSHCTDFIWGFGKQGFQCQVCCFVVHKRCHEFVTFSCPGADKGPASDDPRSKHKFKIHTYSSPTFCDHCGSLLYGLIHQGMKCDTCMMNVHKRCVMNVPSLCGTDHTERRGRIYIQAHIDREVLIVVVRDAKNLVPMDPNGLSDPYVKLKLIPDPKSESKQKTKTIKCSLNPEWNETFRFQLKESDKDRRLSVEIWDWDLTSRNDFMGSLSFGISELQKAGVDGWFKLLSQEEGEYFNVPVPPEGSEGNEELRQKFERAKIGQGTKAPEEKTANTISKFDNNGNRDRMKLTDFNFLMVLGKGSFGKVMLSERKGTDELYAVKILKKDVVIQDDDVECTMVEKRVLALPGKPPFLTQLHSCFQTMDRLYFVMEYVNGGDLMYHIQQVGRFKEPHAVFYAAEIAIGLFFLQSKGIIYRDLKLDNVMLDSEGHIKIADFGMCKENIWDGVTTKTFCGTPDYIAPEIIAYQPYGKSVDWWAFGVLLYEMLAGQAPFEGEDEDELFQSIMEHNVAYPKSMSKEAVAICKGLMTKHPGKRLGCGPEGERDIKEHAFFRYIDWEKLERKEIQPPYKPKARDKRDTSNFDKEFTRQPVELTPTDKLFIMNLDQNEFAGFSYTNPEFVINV

With “peptide I: 15-residue peptide homologous to a sequence in the sixth WD-40 repeat of RACK1; PKC antagonist (KGDYEKILVALCGGN)” the “peptide amount at which activated PKC bound to immobilized peptide (as low as)” value ([1]; PKC with PS, 5 nM rat brain PKC, 0.5-10.0 μmole peptide on nitrocellulose) was no more than 5 µmol, the “binding of unactivated PKC to immobilized peptide” value ([1]; PKC without PS) was “did not bind” and the “induction of PKC autophosphorylation in the absence of PKC activators” value [2] was “Neither peptide I nor control peptide induced PKC autophosphorylation”. The “effect on insulin (hormone)-induced βPKC translocation” value ([3]; 60 minutes after addition of insulin) was “inhibited insulin-induced βPKC translocation” and the “βPKC distribution / translocation in the absence of insulin treatment” value ([3]; homogenate 60 minutes after microinjection) was “did not affect βPKC distribution”.
